The target of one assay is T1, human MTAP (Homo sapiens, UniProt Q13126).
T1 construct: made in house
T1 sequence (Q13126 1-283): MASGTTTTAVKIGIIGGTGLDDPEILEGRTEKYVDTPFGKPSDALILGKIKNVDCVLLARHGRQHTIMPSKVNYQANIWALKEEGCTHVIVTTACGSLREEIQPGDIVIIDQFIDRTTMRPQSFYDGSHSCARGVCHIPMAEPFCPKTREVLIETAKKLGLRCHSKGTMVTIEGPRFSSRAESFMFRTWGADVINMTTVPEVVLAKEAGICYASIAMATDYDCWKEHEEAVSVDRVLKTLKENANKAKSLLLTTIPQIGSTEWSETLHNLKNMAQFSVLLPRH
Briefly: Inhibition constants with MTAP (continuous spectrophotometric assay). In kind it is biochemical. The protocol:
After removal of cell debris by centrifugation, the soluble cell lysates were loaded onto nickel-charged chelating sepharose (GE Healthcare) and washed with lysis buffer containing 20-150 mM imidazole. The 6His-MTANs were eluted in 250 mM imidazole, desalted using a Sephadex G-15 (GE Healthcare) gel filtration column, equilibrated with low salt buffer (100 mM HEPES, 30 mM KCL, pH 7.6) and concentrated to 40 mg/mL.
Continuous spectrophotometric assays were used to characterize the inhibitors of the invention and […] inhibition of MTAP.

For a further assay, the target named is T2, E. coli MTAN (Escherichia coli, UniProt P0AF12).
T2 construct: made in house
T2 sequence (P0AF12 whole entry): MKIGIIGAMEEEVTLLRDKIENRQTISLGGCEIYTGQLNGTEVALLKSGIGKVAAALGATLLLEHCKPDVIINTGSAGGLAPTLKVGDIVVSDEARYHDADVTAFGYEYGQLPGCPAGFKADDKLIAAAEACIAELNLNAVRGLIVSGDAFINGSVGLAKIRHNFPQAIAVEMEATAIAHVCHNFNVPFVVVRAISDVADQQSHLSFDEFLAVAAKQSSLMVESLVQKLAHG
Nature of the assay: Inhibition constants with E. coli MTAN (xanthine oxidase-coupled assay). In kind it is biochemical. The settings on record: 25° C., pH 7.5, MTA as substrate. Here is the method:
(§1) E. coli MTAN and human MTAP were obtained according to the reported methods (Singh, et al, Biochemistry 44, 11647-11659 (2005); Singh and Schramm J. Am. Chem. Soc. 128, 14691-14696 (2006). The MTAN gene sequences from N. meningitides MC58 and H. pylori J99 were amplified from genomic DNA (ATCC) and cloned into a modified pET-32 vector to direct high-level expression of MTAN with a non-cleavable N-terminal 6His tag. 1.5 L cultures of BL21(DE3) harbouring MTAN constructs were induced with 0.5 mM IPTG for 20 hours at 25° C. with vigorous shaking. Cell pellets were washed and lysed in 40 mL lysis buffer (25 mM HEPES, 0.5M NaCl, 10 mM imidazole pH 7.6, protease inhibitors and 0.25 mM TCEP) with the use of a cell disrupter at 15K psi. After removal of cell debris by centrifugation, the soluble cell lysates were loaded onto nickel-charged chelating sepharose (GE Healthcare) and washed with lysis buffer containing 20-150 mM imidazole. The 6His-MTANs were eluted in 250 mM imidazole, desalted using a Sephadex G-15 (GE Healthcare) gel filtration column, equilibrated with low salt buffer (100 mM HEPES, 30 mM KCL, pH 7.6) and concentrated to 40 mg/mL.
(§2) Inhibitor concentrations were obtained from the absorbance at 274 nm with extinction coefficient of 8.5 mM^−1 cm^−1 for 9-deazaadenine moiety.
(§3) MTAN activities were assayed as reported previously (Singh et al (2006) Biochemistry 45, 12929-12941; Singh, et al (2005) J. Biol. Chem. 280, 18265-18273). Briefly, all experiments were carried out at 25° C., in 1 mL total reaction volume containing 100 mM HEPES buffer, pH 7.5 and 50 mM KCl with 5′-deoxymethylthioadenosine (MTA) as substrate. Kinetic constants (kcat and Km) were determined by monitoring MTA hydrolysis at 274 nm where ΔεMTA=1.6 mM^−1 cm^−1. For measuring dissociation constant (Kd) of inhibitors, a xanthine oxidase-coupled assay was carried out. In this assay, saturating levels (1-2 mM) of MTA and various concentrations of inhibitor were mixed with xanthine oxidase (0.5 unit/mL), which is used to convert the MTAN product adenine to 2,8-dihydroxyadenine (ε2,8-dihydroxadenine=15.2 mM^−1 cm^−1 at 293 nm). Reactions were initiated by the addition of 8-10 nM MTAN, and the absorbance at 293 was monitored. Control experiments were carried out in the absence of either inhibitor or MTAN.
(§4) [formula] where vs′ and vs are steady state rates in the presence, and absence of inhibitor, respectively; Km is substrate Michaelis constant which was obtained as described above; [S] and [I] are the concentrations of the substrate MTA and inhibitor, respectively. […] All data fitting was carried out with KaleidaGraph™ ver. 3.5 (Synergy Software).

The target in another assay is N. meningitides MTAN (Neisseria meningitidis, UniProt Q9K054). Briefly: Inhibition constants with N. meningitides MTAN (xanthine oxidase-coupled assay). The settings on record: 25° C., pH 7.5, MTA as substrate. In kind it is biochemical, N. meningitides MC58. Here is the method: as §1, §2, §3, §4
Chain of N. meningitides MTAN (Q9K054 entry or part of it): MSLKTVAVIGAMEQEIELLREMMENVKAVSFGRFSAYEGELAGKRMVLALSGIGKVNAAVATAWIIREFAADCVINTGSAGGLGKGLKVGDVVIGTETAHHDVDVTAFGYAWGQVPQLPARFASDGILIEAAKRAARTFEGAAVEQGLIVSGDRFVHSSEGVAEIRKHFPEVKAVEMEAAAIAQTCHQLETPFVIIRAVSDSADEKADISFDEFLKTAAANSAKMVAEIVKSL

Consider `CSC[C@H](O)[C@H](CO)NCc1c[nH]c2c(N)ncnc12` [Example 7, (2S,3R)-2-((4-amino-5H-pyrrolo[3,2-d]pyrimidin-7-yl)methylamino)-4-(methylthio)butane-1,3-diol], for which binding on human MTAP was put at a Kd of 87 ± 11 nM.
For `CSC[C@H](O)[C@@H](CO)CNCc1c[nH]c2c(N)ncnc12` (racemic) [Example 9, (2RS,3RS)-2-{[(4-amino-5H-pyrrolo[3,2-d]pyrimidin-7-yl)methylamino]methyl}-4-(methylthio)butane-1,3-diol], the dissociation constant Kd on human MTAP turned out to be 278 ± 27 nM; at E. coli MTAN, 25 ± 2 nM; on N. meningitides MTAN, 12.8 ± 0.9 nM.
Regarding `CSC[C@H](O)[C@@H](O)CN(C)Cc1c[nH]c2c(N)ncnc12` [Example 11, (2S,3R)-1-(((4-amino-5H-pyrrolo[3,2-d]pyrimidin-7-yl)methyl)(methyl)amino)-4-(methylthio)butane-2,3-diol], on E. coli MTAN, the Kd came out at 202 ± 35 nM.
In the case of `CSC[C@@H](O)[C@@H](CO)N(C)Cc1c[nH]c2c(N)ncnc12` [Example 8, (2R,3S)-2-(((4-amino-5H-pyrrolo[3,2-d]pyrimidin-7-yl)methyl)(methyl)amino)-4-(methylthio)butane-1,3-diol], the dissociation constant (Kd) at human MTAP amounted to 88 ± 21 nM; at E. coli MTAN, 62 ± 5 nM; on N. meningitides MTAN, 19.3 ± 0.3 nM.
With `CSCC(CO)(CO)NCc1c[nH]c2c(N)ncnc12` [Example 1, 2-((4-amino-5H-pyrrolo[3,2-d]pyrimidin-7-yl)methylamino)-2-(methylthiomethyl)propane-1,3-diol], the dissociation constant Kd at human MTAP was 34 ± 24 nM; on E. coli MTAN it was 5.8 ± 0.8 nM; at N. meningitides MTAN, 4 ± 2 nM.
Take `CSC[C@@H](CN(C)Cc1c[nH]c2c(N)ncnc12)[C@@H](O)CO` [Example 4, (2R,3S)-4-(((4-amino-5H-pyrrolo[3,2-d]pyrimidin-7-yl)methyl)(methyl)amino)-3-(methylthiomethyl)butane-1,2-diol]: the equilibrium dissociation constant (Kd) at E. coli MTAN is 2300 ± 600 nM.
For `CSC[C@@H](O)CNCc1c[nH]c2c(N)ncnc12` [Example 2, (S)-1-((4-amino-5H-pyrrolo[3,2-d]pyrimidin-7-yl)methylamino)-3-(methylthio)propan-2-ol], the dissociation constant (Kd) on human MTAP was found to be 60 ± 8 nM; on E. coli MTAN, 4 ± 0.5 nM; at N. meningitides MTAN it was 3.6 ± 0.4 nM.
Regarding `CSC[C@@H](CNCc1c[nH]c2c(N)ncnc12)[C@@H](O)CO` (racemic) [Example 3, (2RS,3SR)-4-[(4-amino-5H-pyrrolo[3,2-d]pyrimidin-7-yl)methylamino]-3-(methylthiomethyl)butane-1,2-diol], the Kd came to 9 ± 2 nM at E. coli MTAN and 5 ± 1 nM at N. meningitides MTAN.
The like results for `CSC[C@H](O)[C@@H](CO)CN(C)Cc1c[nH]c2c(N)ncnc12` (racemic) [Example 10, (2RS,3RS)-2-((((4-amino-5H-pyrrolo[3,2-d]pyrimidin-7-yl)methyl)(methyl)amino)methyl)-4-(methylthio)butane-1,3-diol] were, in that order, 65 ± 6 nM and 132 ± 9 nM.
For the molecule `CSC[C@H](CO)N[C@H](CO)c1c[nH]c2c(N)ncnc12` [Example 12, (S)-2-((S)-1-(4-amino-5H-pyrrolo[3,2-d]pyrimidin-7-yl)-2-hydroxyethylamino)-3-(methylthio)propan-1-ol], the figures for the dissociation constant (Kd) at human MTAP, on E. coli MTAN and at N. meningitides MTAN were 130 ± 20 nM, 154 ± 15 nM and 47 ± 4 nM, respectively.

The values above are taken from patent publication US8383636B2, “Acyclic amine inhibitors of 5-methytioadenosine phosphorylase and nucleosidase” (priority 2006, dated 2013).
